Experiments:
Format in all cases: cell-based, Pseudomonas aeruginosa
[1] = system: clinical isolate D1 (IMP-1); experiment: microbe, parasite or virus in culture
Description: (§1) Thirty-two carbapenem-resistant clinical P. aeruginosa, with previously defined carbapenem-resistance mechanisms, were included.
(§2) The fractional inhibitory concentration index (FICI) was calculated and interpreted as follows: the MIC of drug A in combination/the MIC of drug A alone + the MIC of drug B in combination/the MIC drug B alone. FICI ≤ 0.5 = synergy; 0.5 < FICI ≤ 1 = additive; FICI 1 < FICI < 2 = indifference, and FICI ≥ 2 = antagonism. All susceptibility testing/checkerboard assays were performed in triplicate.

[2] = system: clinical isolate D10 (IMP-7); experiment: microbe, parasite or virus in culture
Description: as §1, §2

[3] = system: clinical isolate D11 (IMP-7); experiment: microbe, parasite or virus in culture
Description: as §1, §2

[4] = system: clinical isolate D12 (IMP-7); experiment: microbe, parasite or virus in culture
Description: as §1, §2

[5] = system: clinical isolate D13 (IMP-7); experiment: microbe, parasite or virus in culture
Description: as §1, §2

[6] = system: clinical isolate D14 (IMP-10); experiment: microbe, parasite or virus in culture
Description: as §1, §2

[7] = system: clinical isolate D15 (IMP-13); experiment: microbe, parasite or virus in culture
Description: as §1, §2

[8] = system: clinical isolate D16 (IMP-13); experiment: microbe, parasite or virus in culture
Description: as §1, §2

[9] = system: clinical isolate D17 (IMP-13); experiment: microbe, parasite or virus in culture
Description: as §1, §2

[10] = system: clinical isolate D18 (IMP-18); experiment: microbe, parasite or virus in culture
Description: as §1, §2

[11] = system: clinical isolate D19 (IMP-4, OXA-181, VIM-5); experiment: microbe, parasite or virus in culture
Description: as §1, §2

[12] = system: clinical isolate D2 (IMP-1); experiment: microbe, parasite or virus in culture
Description: as §1, §2

[13] = system: clinical isolate D20 (NDM-1); experiment: microbe, parasite or virus in culture
Description: as §1, §2

[14] = system: clinical isolate D21 (NDM-1); experiment: microbe, parasite or virus in culture
Description: as §1, §2

[15] = system: clinical isolate D22 (NDM-1, VIM-2); experiment: microbe, parasite or virus in culture
Description: as §1, §2

[16] = system: clinical isolate D23 (VIM-2); experiment: microbe, parasite or virus in culture
Description: as §1, §2

[17] = system: clinical isolate D24 (VIM-2); experiment: microbe, parasite or virus in culture
Description: as §1, §2

[18] = system: clinical isolate D25 (VIM-4); experiment: microbe, parasite or virus in culture
Description: as §1, §2

[19] = system: clinical isolate D26 (VIM-4); experiment: microbe, parasite or virus in culture
Description: as §1, §2

[20] = system: clinical isolate D27 (VIM-36); experiment: microbe, parasite or virus in culture
Description: as §1, §2

[21] = system: clinical isolate D28 (GES-5, OXA-181); experiment: microbe, parasite or virus in culture
Description: as §1, §2

[22] = system: clinical isolate D29 (KPC-2); experiment: microbe, parasite or virus in culture
Description: as §1, §2

[23] = system: clinical isolate D3 (IMP-1); experiment: microbe, parasite or virus in culture
Description: as §1, §2

[24] = system: clinical isolate D30 (KPC-2); experiment: microbe, parasite or virus in culture
Description: as §1, §2

[25] = system: clinical isolate D31 (Permeability); experiment: microbe, parasite or virus in culture
Description: as §1, §2

[26] = system: clinical isolate D32 (Permeability); experiment: microbe, parasite or virus in culture
Description: as §1, §2

[27] = system: clinical isolate D4 (IMP-1); experiment: microbe, parasite or virus in culture
Description: as §1, §2

[28] = system: clinical isolate D5 (IMP-1); experiment: microbe, parasite or virus in culture
Description: as §1, §2

[29] = system: clinical isolate D6 (IMP-1); experiment: microbe, parasite or virus in culture
Description: as §1, §2

[30] = system: clinical isolate D7 (IMP-1); experiment: microbe, parasite or virus in culture
Description: as §1, §2

[31] = system: clinical isolate D8 (IMP-4); experiment: microbe, parasite or virus in culture
Description: as §1, §2

[32] = system: clinical isolate D9 (IMP-7); experiment: microbe, parasite or virus in culture
Description: as §1, §2

[33] = system: PAO1 and PAO1 TnoprD producing one of eight different carbapenemases; experiment: MIC and checkerboard, isogenic strains as a group
Description: Pseudomonas aeruginosa isolate, PAO1, was used alongside its isogenic counterpart, PAO1 TnoprD, which lacks a functional OprD porin (Held et al. [2012]). β-lactamases, blaIMP-1, blaIMP-10, blaIMP-13, blaNDM-1, blaSPM-1, blaVIM-1, blaVIM-2, and blaKPC-2, had previously been cloned into the pUCP24 shuttle vector (Bouvier et al. [2025]), and were transformed by electroporation into both PAO1 and PAO1 TnoprD.
as §2, with “. MICs of DMSA, CAZ, FEP and checkerboards for the combinations, CAZ/DMSA and FEP/DMSA, were performed for all clinical isolates. All susceptibility testing results were interpreted according to CLSI guidelines (CLSI [2023]). The” for “The”

For CC(C)(O/N=C(\C(=O)N[C@@H]1C(=O)N2C(C(=O)[O-])=C(C[n+]3ccccc3)CS[C@H]12)c1csc(N)n1)C(=O)O [CAZ, ceftazidime], the MIC ([1]; Pseudomonas aeruginosa) was 1020 µg/mL, the MIC ([2]; Pseudomonas aeruginosa) was 512 µg/mL and the MIC ([3]; Pseudomonas aeruginosa) was 512 µg/mL. It also gave an MIC ([4]; Pseudomonas aeruginosa) of 512 µg/mL, an MIC ([5]; Pseudomonas aeruginosa) of 512 µg/mL and an MIC ([6]; Pseudomonas aeruginosa) of 1020 µg/mL. For the same compound, the MIC ([7]; Pseudomonas aeruginosa) was 512 µg/mL, the MIC ([8]; Pseudomonas aeruginosa) was 512 µg/mL and the MIC ([9]; Pseudomonas aeruginosa) was 256 µg/mL. For the same compound, the MIC ([10]; Pseudomonas aeruginosa) was 1020 µg/mL, the MIC ([11]; Pseudomonas aeruginosa) was 4100 µg/mL and the MIC ([12]; Pseudomonas aeruginosa) was 1020 µg/mL. It also gave an MIC ([13]; Pseudomonas aeruginosa) of 4100 µg/mL, an MIC ([14]; Pseudomonas aeruginosa) of 4100 µg/mL and an MIC ([15]; Pseudomonas aeruginosa) of 4100 µg/mL. The MIC ([16]; Pseudomonas aeruginosa) was 32 µg/mL, the MIC ([17]; Pseudomonas aeruginosa) was 32 µg/mL and the MIC ([18]; Pseudomonas aeruginosa) was 32 µg/mL. For the same compound, the MIC ([19]; Pseudomonas aeruginosa) was 128 µg/mL, the MIC ([20]; Pseudomonas aeruginosa) was 512 µg/mL and the MIC ([21]; Pseudomonas aeruginosa) was 16 µg/mL. The MIC ([22]; Pseudomonas aeruginosa) was 16 µg/mL, the MIC ([23]; Pseudomonas aeruginosa) was 512 µg/mL and the MIC ([24]; Pseudomonas aeruginosa) was 64 µg/mL. It also gave an MIC ([25]; Pseudomonas aeruginosa) of 128 µg/mL, an MIC ([26]; Pseudomonas aeruginosa) of 16 µg/mL and an MIC ([27]; Pseudomonas aeruginosa) of 1020 µg/mL. For the same compound, the MIC ([28]; Pseudomonas aeruginosa) was 512 µg/mL, the MIC ([29]; Pseudomonas aeruginosa) was 512 µg/mL and the MIC ([30]; Pseudomonas aeruginosa) was 1020 µg/mL. For the same compound, the MIC ([31]; Pseudomonas aeruginosa) was 2050 µg/mL, the MIC ([32]; Pseudomonas aeruginosa) was 256 µg/mL and the “interaction with DMSA as indicated by the FICIs” value ([33]; SPM-1 and VIM-1 strains, DMSA 200 mg/l) was “synergy (FICI ≤ 0.5 = synergy)”. For the same compound, the “interaction with DMSA as indicated by the FICIs” value ([33]; strains producing IMP-1, IMP-10 or IMP-13, with and without functional OprD, all three DMSA concentrations (100, 200, 300 mg/l)) was “synergy (FICI ≤ 0.5 = synergy)”.

For O=C(O)[C@@H](S)[C@@H](S)C(=O)O [DMSA, meso-dimercaptosuccinic acid], the MIC ([1]; isolate D1, drug alone) was 600 µg/mL, the MIC ([2]; isolate D10, drug alone) was 600 µg/mL and the MIC ([3]; isolate D11, drug alone) was 600 µg/mL. It also gave an MIC ([4]; isolate D12, drug alone) of 600 µg/mL, an MIC ([5]; isolate D13, drug alone) of 700 µg/mL and an MIC ([6]; isolate D14, drug alone) of 900 µg/mL. It also gave an MIC ([7]; isolate D15, drug alone) of 500 µg/mL, an MIC ([8]; isolate D16, drug alone) of 600 µg/mL and an MIC ([9]; isolate D17, drug alone) of 700 µg/mL. It also gave an MIC ([10]; isolate D18, drug alone) of 600 µg/mL, an MIC ([11]; isolate D19, drug alone) of 600 µg/mL and an MIC ([12]; isolate D2, drug alone) of 600 µg/mL. For the same compound, the MIC ([13]; isolate D20, drug alone) was 700 µg/mL, the MIC ([14]; isolate D21, drug alone) was 700 µg/mL and the MIC ([15]; isolate D22, drug alone) was 700 µg/mL. For the same compound, the MIC ([16]; isolate D23, drug alone) was 700 µg/mL, the MIC ([17]; isolate D24, drug alone) was 600 µg/mL and the MIC ([18]; isolate D25, drug alone) was 600 µg/mL. It also gave an MIC ([19]; isolate D26, drug alone) of 700 µg/mL, an MIC ([20]; isolate D27, drug alone) of 800 µg/mL and an MIC ([21]; isolate D28, drug alone) of 600 µg/mL. It also gave an MIC ([22]; isolate D29, drug alone) of 800 µg/mL, an MIC ([23]; isolate D3, drug alone) of 700 µg/mL and an MIC ([24]; isolate D30, drug alone) of 800 µg/mL. For the same compound, the MIC ([25]; isolate D31, drug alone) was 1000 µg/mL, the MIC ([26]; isolate D32, drug alone) was 700 µg/mL and the MIC ([27]; isolate D4, drug alone) was 900 µg/mL. The MIC ([28]; isolate D5, drug alone) was 800 µg/mL, the MIC ([29]; isolate D6, drug alone) was 800 µg/mL and the MIC ([30]; isolate D7, drug alone) was 800 µg/mL. The MIC ([31]; isolate D8, drug alone) was 500 µg/mL, the MIC ([32]; isolate D9, drug alone) was 700 µg/mL and the “MIC to DMSA alone” value ([33]; all isogenic strains) was 900 µg/mL.

Reference: PMC12147714 (FEMS Microbiology Letters, 2025)
